Experimental data: the supplement of paper PMC9938120

Assays:
Assay in all cases: drug sensitivity score (DSS3, normalised partial AUC of % inhibition dose-response) (DSS (score)); higher = more sensitive (stronger inhibition of viability); extreme values may be limits of the assay
FMOC14 = patient-derived high-grade serous ovarian cancer cells; settings: 72 h; library: FO5A; assay format: 2D, 384-well, CellTiter-Glo
How it was run: (§1)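 The drug sensitivity score is calculated as a partial area under the percent-inhibition dose-response curve, divided by the log of the upper asymptote; higher scores mean more sensitive. For this score, early-passage (under 10) patient-derived ovarian cancer cells were exposed on 384-well flat clear-bottom plates to compounds at five concentrations across a 10,000-fold range for 72 h at 37 °C, 5% CO2. Viability was read with CellTiter-Glo and processed in Breeze.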

FMOC22 = patient-derived mucinous ovarian cancer cells; settings: 72 h; library: FO5A; assay format: 2D, 384-well, CellTiter-Glo
How it was run: as §1

FMOC25_1 = patient-derived low-grade serous ovarian cancer cells; settings: 72 h; library: FO4B; assay format: 2D, 384-well, CellTiter-Glo
How it was run: as §1

FMOC02_3 = patient-derived low-grade serous ovarian cancer cells; settings: 72 h; library: FO5A; assay format: 2D, 384-well, CellTiter-Glo
How it was run: as §1

FMOC24 = patient-derived high-grade serous ovarian cancer cells; settings: 72 h; library: FO5A; assay format: 2D, 384-well, CellTiter-Glo
How it was run: as §1

FMOC09 = patient-derived high-grade serous ovarian cancer cells; settings: 72 h; library: FO5A; assay format: 2D, 384-well, CellTiter-Glo
How it was run: as §1

FMOC25_2 = patient-derived low-grade serous ovarian cancer cells; settings: 72 h; library: FO5A; assay format: 2D, 384-well, CellTiter-Glo
How it was run: as §1

FMOC02_2 = patient-derived low-grade serous ovarian cancer cells; settings: 72 h; library: FO5A; assay format: 2D, 384-well, CellTiter-Glo
How it was run: as §1

FMOC03 = patient-derived mucinous ovarian cancer cells; settings: 72 h; library: FO5A; assay format: 2D, 384-well, CellTiter-Glo
How it was run: as §1

FMOC06 = patient-derived mucinous ovarian cancer cells; settings: 72 h; library: FO5A; assay format: 2D, 384-well, CellTiter-Glo
How it was run: as §1

CN(CC(=O)N(Cc1ccc(C2CCCCC2)cc1)c1ccc(C(=O)O)cc1)S(=O)(=O)c1c(F)c(F)c(F)c(F)c1F [SH-4-54]
drug sensitivity score (FMOC14): 5.9 | drug sensitivity score (FMOC22): 5.3 | drug sensitivity score (FMOC25_1): 6.9 | drug sensitivity score (FMOC02_3): 8.8 | drug sensitivity score (FMOC24): 6.2 | drug sensitivity score (FMOC09): 10.3 | drug sensitivity score (FMOC25_2): 5.5 | drug sensitivity score (FMOC02_2): 9.3 | drug sensitivity score (FMOC03): 6.2 | drug sensitivity score (FMOC06): 9

CCc1c2c(nc3ccc(O)cc13)-c1cc3c(c(=O)n1C2)COC(=O)[C@]3(O)CC [SN-38]
drug sensitivity score (FMOC14): 20.4 | drug sensitivity score (FMOC22): 31 | drug sensitivity score (FMOC25_1): 24.4 | drug sensitivity score (FMOC02_3): 32.5 | drug sensitivity score (FMOC24): 24.8 | drug sensitivity score (FMOC09): 15.1 | drug sensitivity score (FMOC25_2): 29.1 | drug sensitivity score (FMOC02_2): 21.3 | drug sensitivity score (FMOC03): 20.2 | drug sensitivity score (FMOC06): 21.8

CC(C)(C)c1cnc(CSc2cnc(NC(=O)C3CCNCC3)s2)o1 [SNS-032]
drug sensitivity score (FMOC14): 17.9 | drug sensitivity score (FMOC22): 12 | drug sensitivity score (FMOC25_1): 20.8 | drug sensitivity score (FMOC02_3): 25.5 | drug sensitivity score (FMOC24): 17.9 | drug sensitivity score (FMOC09): 11.6 | drug sensitivity score (FMOC25_2): 25.4 | drug sensitivity score (FMOC02_2): 19.4 | drug sensitivity score (FMOC03): 17.4 | drug sensitivity score (FMOC06): 23.2

Cc1cc2c(C(=O)NC[C@H](C)c3ccccc3)c(O)c(O)cc2c(O)c1-c1c(C)cc2c(C(=O)NC[C@H](C)c3ccccc3)c(O)c(O)cc2c1O [Sabutoclax]
drug sensitivity score (FMOC14): 12.6 | drug sensitivity score (FMOC22): 10.8 | drug sensitivity score (FMOC25_1): 6.2 | drug sensitivity score (FMOC02_3): 9.1 | drug sensitivity score (FMOC24): 6.6 | drug sensitivity score (FMOC09): 9.3 | drug sensitivity score (FMOC25_2): 5.3 | drug sensitivity score (FMOC02_2): 5.2 | drug sensitivity score (FMOC03): 9.6 | drug sensitivity score (FMOC06): 5.6

CNC(=O)CN1CCC(Oc2cc3c(Nc4cccc(Cl)c4F)ncnc3cc2OC)CC1 [Sapitinib]
drug sensitivity score (FMOC14): 4.2 | drug sensitivity score (FMOC22): 0.9 | drug sensitivity score (FMOC25_1): 9.4 | drug sensitivity score (FMOC02_3): 13.8 | drug sensitivity score (FMOC24): 0.2 | drug sensitivity score (FMOC09): 10.4 | drug sensitivity score (FMOC25_2): 10 | drug sensitivity score (FMOC02_2): 14 | drug sensitivity score (FMOC03): 14.7 | drug sensitivity score (FMOC06): 0.3

CN1CCN(CCOc2cc(OC3CCOCC3)c3c(Nc4c(Cl)ccc5c4OCO5)ncnc3c2)CC1 [Saracatinib]
drug sensitivity score (FMOC14): 5 | drug sensitivity score (FMOC22): 0.6 | drug sensitivity score (FMOC25_1): 5.3 | drug sensitivity score (FMOC02_3): 16.7 | drug sensitivity score (FMOC24): 4.7 | drug sensitivity score (FMOC09): 11 | drug sensitivity score (FMOC25_2): 10 | drug sensitivity score (FMOC02_2): 15.6 | drug sensitivity score (FMOC03): 9.4 | drug sensitivity score (FMOC06): 4.6

O=C(/C=C\n1cnc(-c2cc(C(F)(F)F)cc(C(F)(F)F)c2)n1)NNc1cnccn1 [Selinexor]
drug sensitivity score (FMOC14): 10.7 | drug sensitivity score (FMOC22): 18.9 | drug sensitivity score (FMOC25_1): 15.1 | drug sensitivity score (FMOC02_3): 18.2 | drug sensitivity score (FMOC24): 21.5 | drug sensitivity score (FMOC09): 12.8 | drug sensitivity score (FMOC25_2): 21.4 | drug sensitivity score (FMOC02_2): 15.8 | drug sensitivity score (FMOC03): 12.3 | drug sensitivity score (FMOC06): 21.6

Cn1cnc2c(F)c(Nc3ccc(Br)cc3Cl)c(C(=O)NOCCO)cc21 [Selumetinib]
drug sensitivity score (FMOC14): 1.3 | drug sensitivity score (FMOC22): 7.2 | drug sensitivity score (FMOC25_1): 7.3 | drug sensitivity score (FMOC02_3): 13.7 | drug sensitivity score (FMOC24): 0.4 | drug sensitivity score (FMOC09): 10.6 | drug sensitivity score (FMOC25_2): 8.1 | drug sensitivity score (FMOC02_2): 12.9 | drug sensitivity score (FMOC03): 11.4 | drug sensitivity score (FMOC06): 14.6

O=C(O)c1ccc2c(c1)nc(Nc1cccc(Cl)c1)c1ccncc12 [Silmitasertib]
drug sensitivity score (FMOC14): 4.9 | drug sensitivity score (FMOC22): 6 | drug sensitivity score (FMOC25_1): 3.6 | drug sensitivity score (FMOC02_3): 6.3 | drug sensitivity score (FMOC24): 2.55 | drug sensitivity score (FMOC09): 4.5 | drug sensitivity score (FMOC25_2): 5.2 | drug sensitivity score (FMOC02_2): 4.1 | drug sensitivity score (FMOC03): 7 | drug sensitivity score (FMOC06): 6.9

CCS(=O)(=O)c1cccc(-c2cc(C(=O)NC3CCN(C)CC3)c(C)c3[nH]c4ncc(C)cc4c23)c1 [TAK-901]
drug sensitivity score (FMOC14): 0 | drug sensitivity score (FMOC22): 1.2 | drug sensitivity score (FMOC25_1): 2.2 | drug sensitivity score (FMOC02_3): 5.3 | drug sensitivity score (FMOC24): 1.15 | drug sensitivity score (FMOC09): 7 | drug sensitivity score (FMOC25_2): 5.7 | drug sensitivity score (FMOC02_2): 1 | drug sensitivity score (FMOC03): 1.2 | drug sensitivity score (FMOC06): 2

COc1cc(Nc2ncc(F)c(Nc3ccc4c(n3)NC(=O)C(C)(C)O4)n2)cc(OC)c1OC [Tamatinib]
drug sensitivity score (FMOC14): 0 | drug sensitivity score (FMOC22): 0 | drug sensitivity score (FMOC25_1): 7.2 | drug sensitivity score (FMOC02_3): 9.6 | drug sensitivity score (FMOC24): 5.3 | drug sensitivity score (FMOC09): 0.7 | drug sensitivity score (FMOC25_2): 8.7 | drug sensitivity score (FMOC02_2): 13 | drug sensitivity score (FMOC03): 2.5 | drug sensitivity score (FMOC06): 0

Cc1nc(-c2cn3c(n2)-c2ccc(-c4cnn(C(C)(C)C(N)=O)c4)cc2OCC3)n(C(C)C)n1 [Taselisib]
drug sensitivity score (FMOC14): 4.3 | drug sensitivity score (FMOC22): 2.9 | drug sensitivity score (FMOC25_1): 8.2 | drug sensitivity score (FMOC02_3): 12.2 | drug sensitivity score (FMOC24): 0.85 | drug sensitivity score (FMOC09): 10.1 | drug sensitivity score (FMOC25_2): 8.6 | drug sensitivity score (FMOC02_2): 12.7 | drug sensitivity score (FMOC03): 4.5 | drug sensitivity score (FMOC06): 9.6

CO[C@H]1C[C@@H]2CC[C@@H](C)[C@@](O)(O2)C(=O)C(=O)N2CCCC[C@H]2C(=O)O[C@H]([C@H](C)C[C@@H]2CC[C@@H](OC(=O)C(C)(CO)CO)[C@H](OC)C2)CC(=O)[C@H](C)/C=C(\C)[C@@H](O)[C@@H](OC)C(=O)[C@H](C)C[C@H](C)/C=C/C=C/C=C/1C [Temsirolimus]
drug sensitivity score (FMOC14): 8.9 | drug sensitivity score (FMOC22): 9.7 | drug sensitivity score (FMOC25_1): 13.6 | drug sensitivity score (FMOC02_3): 16.5 | drug sensitivity score (FMOC24): 0.5 | drug sensitivity score (FMOC09): 3.5 | drug sensitivity score (FMOC25_2): 13.1 | drug sensitivity score (FMOC02_2): 9.5 | drug sensitivity score (FMOC03): 5.6 | drug sensitivity score (FMOC06): 2.5

Nc1nc2[nH]cnc2c(=S)[nH]1 [Thioguanine]
drug sensitivity score (FMOC14): 0 | drug sensitivity score (FMOC22): 0 | drug sensitivity score (FMOC25_1): 5.3 | drug sensitivity score (FMOC02_3): 4.3 | drug sensitivity score (FMOC24): 0.95 | drug sensitivity score (FMOC09): 0 | drug sensitivity score (FMOC25_2): 6.3 | drug sensitivity score (FMOC02_2): 3.2 | drug sensitivity score (FMOC03): 0 | drug sensitivity score (FMOC06): 0

CC[C@@]1(O)C(=O)OCc2c1cc1n(c2=O)Cc2cc3c(CN(C)C)c(O)ccc3nc2-1 [Topotecan]
drug sensitivity score (FMOC14): 9.4 | drug sensitivity score (FMOC22): 15.6 | drug sensitivity score (FMOC25_1): 12.7 | drug sensitivity score (FMOC02_3): 15.3 | drug sensitivity score (FMOC24): 7 | drug sensitivity score (FMOC09): 8.4 | drug sensitivity score (FMOC25_2): 16.8 | drug sensitivity score (FMOC02_2): 9.7 | drug sensitivity score (FMOC03): 8.1 | drug sensitivity score (FMOC06): 8.2

CC(C)C[C@@H](C(=O)N[C@H](C(=O)OC1CCCC1)c1ccccc1)[C@H](O)C(=O)NO [Tosedostat]
drug sensitivity score (FMOC14): 5.3 | drug sensitivity score (FMOC22): 1.8 | drug sensitivity score (FMOC25_1): 6.2 | drug sensitivity score (FMOC02_3): 11 | drug sensitivity score (FMOC24): 19.7 | drug sensitivity score (FMOC09): 6.6 | drug sensitivity score (FMOC25_2): 4.7 | drug sensitivity score (FMOC02_2): 7.2 | drug sensitivity score (FMOC03): 7.6 | drug sensitivity score (FMOC06): 11.9
